In patent US8796256B2 (Janssen Pharmaceutica NV, priority 2010, dated 2014):
pEC50: −log10 of the molar value. Like-named read-outs stand apart in the source and are kept apart here.

Columns and labels:
[1] = target: T1, ERR1 (also known as ERR-α or ERR-1) (Homo sapiens, UniProt P11474); assay: TR-FRET assay (disruption of co-activator peptide binding to ERR1 LBD); assay type: biochemical; conditions: 6 nM 6His-ERR1LBD, 6 nM GST-SRC-2 peptide; average of 3 independent experiments
T1 sequence (P11474 193-421 limits assumed): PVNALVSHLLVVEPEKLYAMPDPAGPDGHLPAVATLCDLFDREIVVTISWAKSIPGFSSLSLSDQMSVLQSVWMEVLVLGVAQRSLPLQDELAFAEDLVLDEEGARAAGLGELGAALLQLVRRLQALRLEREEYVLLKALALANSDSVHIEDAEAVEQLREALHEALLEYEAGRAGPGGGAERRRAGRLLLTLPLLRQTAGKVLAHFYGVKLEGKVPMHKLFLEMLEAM
Summary of the method: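 Homogeneous TR-FRET measuring displacement of GST-hSRC2 co-activator peptide (6 nM) from His-tagged ERR1 LBD (6 nM), detected with α-GST Eu cryptate (30 nM) and α-His-XL665 (7.5 nM). Buffer 25 mM Tris pH 8, 2.5 mM Hepes, 20 mM KCl, 1 mM DTT, 0.05 mg/mL delipidated BSA; equilibration 4-18 h at 25° C. Hyperbolic dose-response fit, mean of 3 experiments.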

Zucker fa/fa male rats = assay: Zucker fa/fa Rat Model Assay; assay type: in vivo; conditions: po, 120 h, 10 mg/kg orally once a day for 4 days
Description: Zucker fa/fa is a monogenic model of frank diabetes due to a mutation on the fa gene truncating the leptin receptor and preventing its interaction with its peptide hormone. This mutation results in a hyperphagic phenotype and the rodent develops obesity, hyperlipidemia, fasting hyperglycemia and insulin resistance. Zucker fa/fa male rats were received at four weeks of age and allowed to acclimate for one week. At five weeks of age the animals were single housed in cages in a temperature-controlled room with 12-hour light/dark cycle. The rats were allowed ad libitum access to water and food and throughout the study were maintained on a Purina 5008 diet. Animals were sorted based primarily on fed insulin levels and circulating triglycerides. Animals were dosed orally once a day (10 mg/kg) in the morning for 4 days. The vehicle used was either 20% HPβCD (Hydroxypropyl Beta Cyclodextrin) or 15% Vitamin E/30% PEG-400 (Polyethylene Glycol 400). Fed insulin and triglycerides were measured using blood collected from the tail vein at day 5. Serum plasma samples were prepared by centrifugation in EDTA (Ethylenediaminetetraacetic acid) containing tubes, transferred into 96 well plates and stored at −80° C.

[2] = blood from tail vein at day 5, read-out: % Change Fed Insulin Levels
[3] = blood from tail vein at day 5, read-out: % Change Fed Triglyceride Levels

Structure (SMILES) | pEC50 [1] | change in vivo at 10 mg/kg (Zucker fa/fa male rats; [2]) [%] | change in vivo at 10 mg/kg (Zucker fa/fa male rats; [3]) [%]
CN1CC[C@@H](N2C(=O)S/C(=C\c3ccc4c(cnn4Cc4ccc(Cl)cc4C(F)(F)F)c3)C2=O)[C@H](F)C1 (relative stereo) [Compound 277, (5Z)-5-({1-[4-Chloro-2-(trifluoromethyl)benzyl]-1H-indazol-5-yl}methylidene)-3-(trans-3-fluoro-1-methylpiperidin-4-yl)-1,3-thiazolidine-2,4-dione] | 7.24 | -73 | -57
O=C(O)CN1C(=O)S/C(=C\c2ccc3c(cnn3Cc3ccc(Cl)cc3C(F)(F)F)c2)C1=O [Compound 4, (5Z)-5-{[1-(4-Chloro-2-trifluoromethylbenzyl)-1H-indazol-5-yl]methylidene}-2,4-dioxothiazolidin-3-ylacetic acid] | 8.05 | -50 | -14
COc1ccc(Cn2ncc3cc(/C=C4\SC(=O)N(CCN5CCOCC5)C4=O)ccc32)c(C(F)(F)F)c1 [Compound 8, (5Z)-5-[(1-{[4-(Methyloxy)-2-(trifluoromethyl)phenyl]methyl}-1H-indazol-5-yl)methylidene]-3-(2-morpholin-4-ylethyl)-1,3-thiazolidine-2,4-dione] | 8.10 | -21 | -19
COc1ccc(Cn2ncc3cc(/C=C4\SC(=O)N(CC(=O)O)C4=O)ccc32)c(C(F)(F)F)c1 [Compound 19, [(5Z)-5-({1-[4-Methoxy-2-(trifluoromethyl)benzyl]-1H-indazol-5-yl}methylidene)-2,4-dioxo-1,3-thiazolidin-3-yl]acetic acid] | 8.05 | -9 | 21
COc1ccc(Cn2ncc3cc(/C=C4\SC(=O)N(C5CCC(C(=O)O)CC5)C4=O)ccc32)c(C(F)(F)F)c1 (stereo not drawn) [Compound 22, 4-[(5Z)-5-({1-[4-Methoxy-2-(trifluoromethyl)benzyl]-1H-indazol-5-yl}methylidene)-2,4-dioxo-1,3-thiazolidin-3-yl)cyclohexanecarboxylic acid] | 8.10 | -11 | 32
COc1nn(Cc2ccc(Cl)cc2C(F)(F)F)c2ccc(/C=C3\SC(=O)N(CCN4CCCC4)C3=O)cc12 [Compound 27, (5Z)-5-({1-[4-Chloro-2-(trifluoromethyl)benzyl]-3-methoxy-1H-indazol-5-yl}methylidene)-3-(2-pyrrolidin-1-ylethyl)-1,3-thiazolidine-2,4-dione] | 7.57 | 9 | 0
NS(=O)(=O)NC(=O)CN1C(=O)S/C(=C\c2ccc3c(cnn3Cc3ccc(Cl)cc3C(F)(F)F)c2)C1=O [Compound 31, 2-[(5Z)-5-({1-[4-Chloro-2-(trifluoromethyl)benzyl]-1H-indazol-5-yl}methylidene)-2,4-dioxo-1,3-thiazolidin-3-yl]-N-sulfamoylacetamide] | 7.72 | -51 | -14
CN(C)S(=O)(=O)NC(=O)CN1C(=O)S/C(=C\c2ccc3c(cnn3Cc3ccc(Cl)cc3C(F)(F)F)c2)C1=O [Compound 35, 2-[(5Z)-5-({1-[4-Chloro-2-(trifluoromethyl)benzyl]-1H-indazol-5-yl}methylidene)-2,4-dioxo-1,3-thiazolidin-3-yl]-N-(dimethylsulfamoyl) acetamide] | 7.64 | -29 | -46
Cc1nn(Cc2ccc(Cl)cc2C(F)(F)F)c2ccc(/C=C3\SC(=O)N(CC(=O)O)C3=O)cc12 [Compound 36, [(5Z)-5-({1-[4-Chloro-2-(trifluoromethyl)benzyl]-3-methyl-1H-indazol-5-yl}methylidene)-2,4-dioxo-1,3-thiazolidin-3-yl]acetic acid] | 7.55 | -18 | -4
O=C(CN1C(=O)S/C(=C\c2ccc3c(cnn3Cc3ccc(Cl)cc3C(F)(F)F)c2)C1=O)NS(=O)(=O)N1CCCC1 [Compound 38, 2-[(5Z)-5-({1-[4-Chloro-2-(trifluoromethyl)benzyl]-1H-indazol-5-yl}methylidene)-2,4-dioxo-1,3-thiazolidin-3-yl]-N-(pyrrolidin-1-ylsulfonyl)acetamide] | 7.60 | -47 | 1
Cc1nn(Cc2ccc(Cl)cc2C(F)(F)F)c2ccc(/C=C3\SC(=O)N(CC(=O)NS(=O)(=O)N4CCCC4)C3=O)cc12 [Compound 40, 2-[(5Z)-5-({1-[4-Chloro-2-(trifluoromethyl)benzyl]-3-methyl-1H-indazol-5-yl}methylidene)-2,4-dioxo-1,3-thiazolidin-3-yl]-N-(pyrrolidin-1-ylsulfonyl)acetamide] | 7.27 | -10 | -23
O=C(O)CN1C(=O)S/C(=C\c2ccc3c(cnn3Cc3ccc(C(F)(F)F)cc3C(F)(F)F)c2)C1=O [Compound 59, [(5Z)-5-({1-[2,4-Bis(trifluoromethyl)benzyl]-1H-indazol-5-yl}methylidene)-2,4-dioxo-1,3-thiazolidin-3-yl]acetic acid] | 7.59 | -23 | -25
O=C1S/C(=C\c2ccc3c(cnn3Cc3ccc(Cl)cc3C(F)(F)F)c2)C(=O)N1Cc1nn[nH]n1 [Compound 72, (5Z)-5-({1-[4-Chloro-2-(trifluoromethyl)benzyl]-1H-indazol-5-yl}methylidene)-3-(2H-tetrazol-5-ylmethyl)-1,3-thiazolidine-2,4-dione] | 7.89 | -44 | -51
O=C(O)C1CCC(N2C(=O)S/C(=C\c3ccc4c(cnn4Cc4ccc(Cl)cc4C(F)(F)F)c3)C2=O)CC1 (stereo not drawn) [Compound 73, 4-[(5Z)-5-({1-[4-Chloro-2-(trifluoromethyl)benzyl]-1H-indazol-5-yl}methylidene)-2,4-dioxo-1,3-thiazolidin-3-yl]cyclohexanecarboxylic acid] | 7.92 | -30 | -19
O=C1CN(CCN2C(=O)S/C(=C\c3ccc4c(cnn4Cc4ccc(Cl)cc4C(F)(F)F)c3)C2=O)CCN1 [Compound 79, (5Z)-5-({1-[4-Chloro-2-(trifluoromethyl)benzyl]-1H-indazol-5-yl}methylidene)-3-[2-(3-oxopiperazin-1-yl)ethyl]-1,3-thiazolidine-2,4-dione] | 7.52 | -20 | 34
N=C(N)NOCCN1C(=O)S/C(=C\c2ccc3c(cnn3Cc3ccc(Cl)cc3C(F)(F)F)c2)C1=O [Compound 91, 1-{2-[(5Z)-5-({1-[4-Chloro-2-(trifluoromethyl)benzyl]-1H-indazol-5-yl}methylidene)-2,4-dioxo-1,3-thiazolidin-3-yl]ethoxy}guanidine] | 7.24 | -68 | -60
O=C1S/C(=C\c2ccc3c(cnn3Cc3ccc(Cl)cc3C(F)(F)F)c2)C(=O)N1CCN1CCCC1 [Compound 111, (5Z)-5-({1-[4-Chloro-2-(trifluoromethyl)benzyl]-1H-indazol-5-yl}methylidene)-3-(2-pyrrolidin-1-ylethyl)-1,3-thiazolidine-2,4-dione] | 7.77 | -49 | -30
CN1CCC[C@H]1CN1C(=O)S/C(=C\c2ccc3c(cnn3Cc3ccc(Cl)cc3C(F)(F)F)c2)C1=O [Compound 121, (5Z)-5-({1-[4-Chloro-2-(trifluoromethyl)benzyl]-1H-indazol-5-yl}methylidene)-3-{[(2S)-1-methylpyrrolidin-2-yl]methyl}-1,3-thiazolidine-2,4-dione] | 8.30 | -59 | -37
CS(=O)(=O)NC(=O)CN1C(=O)S/C(=C\c2ccc3c(cnn3Cc3ccc(Cl)cc3C(F)(F)F)c2)C1=O [Compound 126, 2-[(5Z)-5-({1-[4-Chloro-2-(trifluoromethyl)benzyl]-1H-indazol-5-yl}methylidene)-2,4-dioxo-1,3-thiazolidin-3-yl]-N-(methylsulfonyl)acetamide] | 7.74 | -14 | 13
CN1C2CCC1CC(N1C(=O)S/C(=C\c3ccc4c(cnn4Cc4ccc(Cl)cc4C(F)(F)F)c3)C1=O)C2 (stereo not drawn) [Compound 128, (5Z)-5-({1-[4-Chloro-2-(trifluoromethyl)benzyl]-1H-indazol-5-yl}methylidene)-3-(8-methyl-8-azabicyclo[3.2.1]oct-3-yl)-1,3-thiazolidine-2,4-dione] | 7.72 | -36 | 28
